# Several values for one entry are separate records, joined by “and”; a condition that tells them apart may be missing. Equal values may be shown once. Where a name gives a salt, the structure may show the parent alone. Read-outs that look alike come from different tables or passages of the source.
# Legend:
# SUDHL10 [1] = assay: Induction of caspase-3/7 activity (Caspase-Glo 3/7), SUDHL10; type: cell-based; details: caspase-3/7 induction, SUDHL10 cells, 3 h treatment, median
# Summary of the method: (§1)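 DLBCL lines SUDHL5 and SUDHL10 treated with compounds for 3 h at 37 °C; caspase-3/7 activity read by Caspase-Glo 3/7 luminescence. Medium-only background subtracted; EC50 fitted with bottom fixed at 1 and top fixed at the reference compound's maximal induction.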
# MCL-1 = MCL-1 (Homo sapiens, UniProt Q07820); assay: Protein-protein interaction assay MCL-1/Noxa BH3 peptide (MCL-1 assay), TR-FRET; type: binding; details: MBP-MCL-1 / Noxa BH3-derived peptide, median
# MCL-1, sequence (Q07820 whole entry): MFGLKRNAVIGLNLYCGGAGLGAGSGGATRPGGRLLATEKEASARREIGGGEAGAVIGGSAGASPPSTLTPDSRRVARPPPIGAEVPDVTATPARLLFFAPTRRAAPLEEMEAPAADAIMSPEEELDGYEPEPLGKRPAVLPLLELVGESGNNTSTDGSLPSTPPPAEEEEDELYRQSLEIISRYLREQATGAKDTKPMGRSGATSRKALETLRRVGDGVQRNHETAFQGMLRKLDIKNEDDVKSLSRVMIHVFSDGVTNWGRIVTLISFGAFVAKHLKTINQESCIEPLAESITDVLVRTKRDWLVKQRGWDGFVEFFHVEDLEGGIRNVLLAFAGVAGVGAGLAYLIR
# Summary of the method: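 IC50 came from a 4-parameter fit of the normalized 665/620 nm TR-FRET ratio (anti-MBP Eu-cryptate/streptavidin-XL665). Compounds (0.1 nM–20 μM, duplicates) were preincubated 10 min at 22 °C with 1 nM MBP-MCL-1 in pH 7 Tris/NaCl/KF buffer, then read after 1 h at 22 °C plus overnight at 4 °C.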
# A2780 = assay: Anti-proliferative effect (CellTiter-Glo, 72 h), A2780; type: cell-based; details: A2780 cells, median, read-out: IC50 antiproliferation assay A2780 [M] (median)
# Summary of the method: (§2)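 72 h compound treatment, 37 °C humidified; CellTiter-Glo added, 10 min incubation, luminescence read; day 0 plate read in parallel for baseline.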
# OPM2 = assay: Anti-proliferative effect (CellTiter-Glo, 72 h), OPM2; type: cell-based; details: OPM2 cells, median, read-out: IC50 antiproliferation assay OPM2 [M] (median)
# Procedure: Assessment of the Anti-Proliferative Effect of Compounds in Different Cell Lines
# The impact of compounds on the proliferation of different cell lines was assessed using the CellTiter-Glo® Luminescent Cell Viability reagent from Promega (G7573). Of note, SUDHL10 and SUDHL5 (DLBCL), NCI-H929 (Multiple Myeloma), A2780 (ovarian carcinoma) as well as MV-4-11(AML) cells are sensitive to MCL-1 inhibition.
# In parallel, cells were plated in a reference (day 0) plate for time zero determination.
# Rim wells were excluded. The cells were incubated for 72 h hours in a humidified incubator at 37° C. The day 0 plate was measured by adding 30 μl/well of CTG solution (CellTiter-Glo® Luminescent Cell Viability reagent, Promega G7573) to time zero wells in the reference plate followed by a 10 minutes incubation and luminescence reading at 0.1 ms, using the PHERAstar FS microplate reader (BMG Labtech).
# After 72 h incubation, the treated plates were measured in the same way as the day 0 plate mentioned above.
# SUDHL5 [2] = assay: Anti-proliferative effect (CellTiter-Glo, 72 h), SUDHL5; type: cell-based; details: SUDHL5 cells, antiproliferation, 72 h incubation, median, read-out: Antiproli SUDHL5 [M] (median)
# Summary of the method: as §2
# SUDHL5 [3] = assay: Induction of caspase-3/7 activity (Caspase-Glo 3/7), SUDHL5; type: cell-based; details: caspase-3/7 induction, SUDHL5 cells, 3 h treatment, median
# Summary of the method: as §1
# SUDHL10 [4] = assay: Induction of cytotoxicity (CellTiter-Glo, 5 h), SUDHL10
# SUDHL10 [5] = assay: Anti-proliferative effect (CellTiter-Glo, 72 h), SUDHL10; type: cell-based; details: SUDHL10 cells, antiproliferation, 72 h incubation, median, read-out: Antiproli SUDHL10 [M] (median)
# Summary of the method: as §2
# SUDHL5 [6] = assay: Induction of cytotoxicity (CellTiter-Glo, 5 h), SUDHL5
# [7] = read-out: Cytotox SUDHL10 [M] (median), SUDHL10 cells, cytotoxicity induction, CellTiter-Glo, 5 h incubation, median
# [8] = Homo sapiens, SU-DHL-5, 5 h, read-out: Cytotox SUDHL5 [M] (median), SUDHL5 cells, cytotoxicity induction, CellTiter-Glo, 5 h incubation, median
# [9] = Homo sapiens, SU-DHL10, 5 h, read-out: Cytotox SUDHL10 [M] (median), SUDHL10 cells, cytotoxicity induction, CellTiter-Glo, 5 h incubation, median
# [10] = read-out: Cytotox SUDHL5 [M] (median), SUDHL5 cells, cytotoxicity induction, CellTiter-Glo, 5 h incubation, median
EC50 (SUDHL10 [1]) [µM],IC50 (MCL-1) [nM],IC50 (A2780) [M],IC50 (SUDHL5 [2]) [M],EC50 (SUDHL5 [3]),IC50 (SUDHL10 [5]) [M],"EC50 (SUDHL10 [1]; Homo sapiens, SU-DHL10, 3 h) [µM]","IC50 (SUDHL5 [2]; Homo sapiens, SU-DHL-5, 72 h) [M]","EC50 (SUDHL5 [3]; Homo sapiens, SU-DHL-5, 3 h) [µM]","IC50 (SUDHL10 [5]; Homo sapiens, SU-DHL10, 72 h) [M]","IC50 (A2780; Homo sapiens, A2780, 72 h) [M]",Structure (SMILES),IC50 (OPM2) [M],IC50 (SUDHL10 [4]; [7]),"IC50 (OPM2; Homo sapiens, OPM-2, 72 h) [M]",IC50 (SUDHL5 [6]; [8]) [M],IC50 (SUDHL10 [4]; [9]) [M],IC50 (SUDHL5 [6]; [10])
> 33,5.93,1.39e-05,1.56e-05,30.5 µM and > 33 µM,1.12e-05,,,,,,"CC(C)OCc1nn(C)c2c1-c1cccc3c(CCCOc4cccc5ccccc45)c(C(=O)O)n(c13)CCCCN(C)C2 (single isomer, unassigned) [Example 1-75, 1,14-dimethyl-7-[3-(naphthalen-1-yloxy)propyl]-3-[(propan-2-yloxy)methyl]-10,11,12,13,14,15-hexahydro-1H-pyrazolo[3′,4′:8,9][1,6]diazacycloundecino[10,11,1-hi]indole-8-carboxylic Acid]",9.37e-06,1.9e-05 M and > 3.3e-05 M,,,,
,,,,,,> 33,2.1e-05,> 33,1.13e-05,,"Cn1nc(COc2ccccc2)c2c1COCC=CCn1c(C(=O)O)c(CCCOc3cccc4ccccc34)c3cccc-2c31 (racemic) [Example 1-76, (rac)-(E/Z)-1-methyl-7-[3-(naphthalen-1-yloxy)propyl]-3-(phenoxymethyl)-1,10,13,15-tetrahydropyrazolo[4′,3′:9,10][1,6]oxazacycloundecino[8,7,6-hi]indole-8-carboxylic Acid]",,,> 3.3e-05,> 3.3e-05,> 3.3e-05,
,28.3,,,,,> 33,,> 33,2.13e-05,2.55e-05,"CC(C)OCc1nn(C)c2c1-c1cccc3c(CCCOc4cccc5ccccc45)c(C(=O)O)n(c13)CCCN(C)C2 (single isomer, unassigned) [Example 1-71, 7,9-dimethyl-1-[3-(naphthalen-1-yloxy)propyl]-1-[(propan-2-yloxy)methyl]-4,5,6,7,8,9-hexahydropyrazolo[3′,4′:7,8][1,5]diazecino[9,10,1-hi]indole-2-carboxylic Acid]",,,2.57e-05,,> 3.3e-05,1.98e-05 M and > 3.3e-05 M
,2310,,,,,> 33,,> 33,> 3.3e-05,> 3.3e-05,"COc1cc2cc(c1)-c1cccc3c(CCCOc4cccc5ccccc45)c(C(=O)O)n(c13)CCOCCO2 (racemic) [Example 1-119, (rac)-12-Methoxy-1-[3-(1-naphthyloxy)propyl]-4,5,7,8-tetrahydro-10,14-(metheno)[1,4,7]dioxazacyclotetradecino[9,8,7-hi]indole-2-carboxylic Acid]",,,> 3.3e-05,> 3.3e-05,> 3.3e-05,
,4.66,,,,,> 33,,> 33,> 3.3e-05,> 3.3e-05,"Cn1nc(COc2ccc(N3CCN(CC(=O)O)CC3)cc2)c2c1COCCCCn1c(C(=O)O)c(CCCOc3cccc4ccccc34)c3cccc-2c31 (racemic) [Example 1-120, (rac)-3-({4-[4-(Carboxymethy)piperazin-1-yl]phenoxy}methyl)-1-methyl-7-[3-(naphthalen-1-yloxy)propyl]-1,10,11,12,13,15-hexahydropyrazolo[4′,3′:9,10][1,6]oxazacycloundecino[8,7,6-hi]indole-8-carboxylic Acid]",,,> 3.3e-05,> 3.3e-05,> 3.3e-05,
,6880,,,,,> 33,,> 33,> 3.3e-05,2.8e-05,"COc1cc2cc(c1)-c1cccc3c(CCCOc4cccc5ccccc45)c(C(=O)O)n(c13)CCCCCO2 (racemic) [Example 1-122, (rac)-12-Methoxy-1-[3-(naphthalen-1-yloxy)propyl]-5,6,7,8-tetrahydro-4H-10,14-(metheno)[1,7]oxazacyclotetradecino[9,8,7-hi]indole-2-carboxylic Acid]",,,2.77e-05,> 3.3e-05,> 3.3e-05,

# The remaining lines, values behind:
Structure (SMILES),EC50 (SUDHL10 [1]) [µM],IC50 (MCL-1) [nM],IC50 (A2780) [M],IC50 (SUDHL5 [2]) [M],EC50 (SUDHL5 [3]),IC50 (SUDHL10 [5]) [M],"EC50 (SUDHL10 [1]; Homo sapiens, SU-DHL10, 3 h) [µM]","IC50 (SUDHL5 [2]; Homo sapiens, SU-DHL-5, 72 h) [M]","EC50 (SUDHL5 [3]; Homo sapiens, SU-DHL-5, 3 h) [µM]","IC50 (SUDHL10 [5]; Homo sapiens, SU-DHL10, 72 h) [M]","IC50 (A2780; Homo sapiens, A2780, 72 h) [M]",IC50 (OPM2) [M],IC50 (SUDHL10 [4]; [7]),"IC50 (OPM2; Homo sapiens, OPM-2, 72 h) [M]",IC50 (SUDHL5 [6]; [8]) [M],IC50 (SUDHL10 [4]; [9]) [M],IC50 (SUDHL5 [6]; [10])
"COCCn1nc2c(c1CN1CCOCC1)-c1cccc3c(CCCOc4cccc5ccccc45)c(C(=O)O)n(c13)CCCN(C)C2 (single isomer, unassigned; enantiomer 2) [Example 058, 10-(2-methoxyethyl)-7-methyl-11-(morpholin-4-ylmethyl)-1-[3-(naphthalen-1-yloxy)propyl]-4,5,6,7,8,10-hexahydropyrazolo[3′,4′:7,8][1,5]diazecino[9,10,1-hi]indole-2-carboxylic Acid (Enantiomer 2)]",> 33,116,> 3.3e-05,,> 33 µM,2.05e-05,,,,,,> 3.3e-05,> 3.3e-05 M,,,,> 3.3e-05 M
"Cn1ncc2c1COCCCCn1c(C(=O)O)c(CCCOc3cccc4ccccc34)c3cccc-2c31 (racemic) [Example 128, (rac)-1-methyl-7-[3-(naphthalen-1-yloxy)propyl]-1,10,11,12,13,15-hexahydropyrazolo[4′,3′:9,10][1,6]oxazacycloundecino[8,7,6-hi]indole-8-carboxylic Acid]",,40.3,,,,,> 33,,> 33,1.29e-05,3.04e-05,,,> 3.3e-05,> 3.3e-05,> 3.3e-05,
"Cc1nn(C)c2c1-c1cccc3c(CCCOc4ccccc4)c(C(=O)O)n(c13)CCCCOC2 (racemic) [Example 016, (rac)-1,3-dimethyl-7-(3-phenoxypropyl)-1,10,11,12,13,15-hexahydropyrazolo[4′,3′:9,10][1,6]oxazacycloundecino[8,7,6,6-hi]indole-8-carboxylic Acid]",,495,,,,,> 33,,> 33,> 3.3e-05,> 3.3e-05,,,> 3.3e-05,> 3.3e-05,> 3.3e-05,
"CCOCc1nn(C)c2c1-c1cccc3c(CCCOc4cccc5c4CCCC5)c(C(=O)O)n(c13)CCCCOC2 (single isomer, unassigned; enantiomer 2) [Example 172, 3-(ethoxymethyl)-1-methyl-7-[3-(5,6,7,8-tetrahydronaphthalen-1-yloxy)propyl]-1,10,11,12,13,15-hexahydropyrazolo[4′,3′:9,10][1,6]oxazacycloundecino[8,7,6-hi]indole-8-carboxylic Acid (Enantiomer 2)]",> 33,144,> 3.3e-05,,> 33 µM,1.53e-05,,,,,,> 3.3e-05,> 3.3e-05 M,,,,> 3.3e-05 M
"Cc1c2c(nn1CCN1CCOCC1)COCCCCn1c(C(=O)O)c(CCCOc3cccc4ccccc34)c3cccc-2c31 (single isomer, unassigned; enantiomer 2) [Example 055, 3-methyl-2-[2-(morpholin-4-yl)ethyl]-7-[3-(naphthalen-1-yloxy)propyl]-2,10,11,12,13,15-hexahydropyrazolo[4′,3′:9,10][1,6]oxazacycloundecino[8,7,6-hi]indole-8-carboxylic acid-N-ethylethanamine Salt (Enantiomer 2)]",> 33,41,> 3.3e-05,,> 33 µM,1.17e-05,,,,,,> 3.3e-05,> 3.3e-05 M,,,,> 3.3e-05 M

# Reference: patent US10981932B2, “Macrocyclic indole derivatives” (Bayer Aktiengesellschaft, priority 2016, dated 2021)
